The subject of one test is Bmi1 expression. Nature of the test: Screen for increased expression of Bmi1 (BAF target) in mESCs. In kind it is cell-based, mouse. The following applies: mESC screen. The text has this:
This synthetic lethal interaction has been attributed to the increased dependency of ARID1A-deficient cells on the ATR-mediated G2/M decatenation checkpoint following loss of ARID1A-mediated interactions of the BAF complex with TOP2A^7,27. Utilizing the knowledge that one of the BAF complex's diverse and essential functions involves repression of specific genes in embryonic stem cells^28, we developed a screening strategy to identify compounds that upregulate target genes repressed by the embryonic BAF complex (esBAF) in mESCs including Bmil, Ringl, and Fgf4 (FIG. 1b)^16,29. Given that the loss of ARID1A (a functionally critical, mechanistically elusive, and frequently mutated subunit of the BAF complex) sensitizes cancer cells to inhibition of the ATR kinase, we sought to identify whether our putative esBAF inhibitors (FIG. 1c) might phenocopy the loss of ARID1A in cancer cells and thereby synergize with ATR inhibitors.
We recently completed a large-scale screen to identify small molecules that result in increased expression of Bmi1, a known genetic target of BAF whose expression is increased about 6- to 12-fold upon deletion of the SMARCA4 ATPase subunit of the BAF complex^29. […]

The test system of test [1] is HCT116 cells infected with shRNA lentivirus targeting ARID1A. Put plainly: Synergy viability assay, HCT116 with shARID1A knockdown. It is filed as cell-based, human. From the text:
SMARCA4, the primary target of our original screen, is present in both human BAF and PBAF complexes in cancer^12. PBAF complexes differ from BAF complexes by incorporation of specific subunits. Specifically, PBAF complexes contain ARID2 (as opposed to ARID1A/B), PHF10 (BAF45a) (as opposed to […] (BAF45d)), PBRM1, and lack the BAF-specific subunit SS18. PBAF specific subunits are also frequently mutated in cancer, specifically renal clear cell carcinomas and cholangiocarcinomas^33-36. To assess whether the lead compound is targeting BAF, PBAF complexes, or both, we constitutively knocked down ARID1A or ARID2 by lentiviral transduction of HCT116 cells and compared the BAFi/ATRi synergy to the wild-type (ARID1A+/+). […] Further, upon knockdown of ARID1A or ARID2 (FIG. 3b), the synergistic effect observed between Baficillin1 and VE-821 was ablated upon loss of ARID1A (FIG. 3e) (CIshARID1A=1.48±0.14), but not loss of shARID2 (CIshARID2=0.42±0.04) (FIG. 3c-e).
Viability assays were performed in 384-well plates. Cells were plated at 500 cells/well. Each drug was administered in 5-doses with 4 replicates per plate, and each 5×5 drug combination was administered with 8 replicates per plate, 24 hours after seeding. All error bars represent 4 or 8 technical replicates averaged over 3 independent experiments. Media containing fresh drug was replaced every 48 hours. After 5 days, cellular viability was measured using CellTitre blue, as described by the manufacturer.
Lentiviruses were produced in Lenti-X 293T cells (Clonetech) via spinfection with polyethylenimine transfection. 293T-x cells were transfected with PEI (Polysciences Inc., 24765) with lentiviral PLKO shARID1A or GIPZ shARID2 knockdown vectors, co-transfected with packaging vectors pspax2 and pMD2.G as previously described^49. PLKO shRNA construct targeting ARID1A (TRCN0000059090: shRNA-2) was obtained^50 and GIPZ Human ARID2 shRNA was purchased from Dharmacon (CloneId:V2LHS_74399). […]

Consider `CO[C@H]1CN(C)C(=O)c2cc(NC(=O)NC(C)C)ccc2OC[C@H](C)N(Cc2ccc(-c3ccccn3)cc2)C[C@@H]1C` [Baficillin1], for which the “activation of Bmi1 and other BAF targets” value with Bmi1 expression is given as “robust activation”. Moreover, the “sensitivity (cell survival) compared to wild-type HCT116” value in test [1] (single agent, 5 continuous days) is “slightly less sensitive”. In test [1] (with VE-821, 5 days), the “combination index (CI shARID1A)” value was 1.48±0.14.

These data come from US11267809B2, “BAF complex modulating compounds and methods of using the same” (THE BOARD OF TRUSTEES OF THE LELAND STANFORD JUNIOR …, priority 2017, dated 2022).
